Results: US11819492B2, “Natural product derivatives for inhibiting cellular necroptosis, ferroptosis and oxytosis” (Institut National de la Sante et de la Recherche Medicale …, priority 2016, dated 2023)

Test system: Human retinal pigment epithelial cell line, ARPE-19
Assay: NaIO3-induced retinal cell death (cellular model of AMD), MTS viability assay
Assay type: cell-based
Details: subtoxic concentration (+/−20 μM), 10 mM NaIO3, 24 hours, P<0.001
Description: At it was previously shown (Hanus et al. Cell Death Discov. 2016, 2, 16054), NaIO3 is an oxidizing agent that induces necroptosis in retinal pigment epithelial cell line that can be inhibited by 200 μM of necrostatin-1. […] Human retinal pigment epithelial cell line, ARPE-19, was treated with 10 mM of NaIO3 as cellular model of age-related macular degeneration (AMD). […] Cells were then incubated at 37° C., 5% CO2 for 24 hours before performing MTS viability assay. Cell viability was monitored using CellTiter 96® AQueous Non-Radioactive Cell Proliferation Assay (Promega, Fitchburg, WI, USA), based on the water-soluble tetrazolium compound MTS (3-[4,5-dimethylthiazol-2-yl]-5-[3-carboxymethoxy-phenyl]-2-[4-sulfophenyl]-2H-tetrazolium, inner salt) according to the manufacturers instructions.

For `COc1cc(O)c2c(c1)OC(O)(c1ccc(OCc3ccccc3)cc1)CC2=O` (stereo not shown) [compound 1], the “protection from death induced by NaIO3” value was “protects significantly”.
